Source: ChEMBL document CHEMBL4680376, “Discovery of Orally Active and Nonsteroidal Farnesoid X Receptor (FXR) Antagonist with Propensity for Accumulation and Responsiveness in Ileum” (ACS Med Chem Lett, 2021)

Experiments:
Huh-7 = test: Cytotoxicity against human HuH-7 cells by MTT assay
[1] = Metabolic stability in mouse liver microsomes assessed as compound remaining at 1 ug/ml incubated for 30 mins by LC-MS/MS analysis; details: at 1 µg/mL
[2] = Metabolic stability in rat liver microsomes assessed as compound remaining at 1 ug/ml incubated for 30 mins by LC-MS/MS analysis; details: at 1 µg/mL
[3] = Plasma concentration in Sprague-Dawley rat at 30 mg/kg, po measured after 6 hrs by LC-MS/MS analysis
[4] = rat, in vivo, iv, 1 mg/kg, 6 h
in vivo [5] = details: Sprague-Dawley, rat, po, 30 mg/kg
in vivo [6] = details: Sprague-Dawley, rat, po, 30 mg/kg; remark: listed apart in the source
in vivo [7] = details: Sprague-Dawley, rat, po, 30 mg/kg; remark: listed apart in the source
in vivo [8] = details: Sprague-Dawley, rat, po, 30 mg/kg; remark: listed apart in the source
Bile acid receptor [9] = molecular target: T1, Bile acid receptor (Homo sapiens, UniProt Q96RI1); test: Antagonist activity against recombinant human FXR transfected in human HuH-7 cells co-transfected with FRE-luciferase assessed as reduction in CDCA-induced luciferase expression incubated for 24 hrs by luciferase reporter gene assay
T1 sequence (Q96RI1 whole entry): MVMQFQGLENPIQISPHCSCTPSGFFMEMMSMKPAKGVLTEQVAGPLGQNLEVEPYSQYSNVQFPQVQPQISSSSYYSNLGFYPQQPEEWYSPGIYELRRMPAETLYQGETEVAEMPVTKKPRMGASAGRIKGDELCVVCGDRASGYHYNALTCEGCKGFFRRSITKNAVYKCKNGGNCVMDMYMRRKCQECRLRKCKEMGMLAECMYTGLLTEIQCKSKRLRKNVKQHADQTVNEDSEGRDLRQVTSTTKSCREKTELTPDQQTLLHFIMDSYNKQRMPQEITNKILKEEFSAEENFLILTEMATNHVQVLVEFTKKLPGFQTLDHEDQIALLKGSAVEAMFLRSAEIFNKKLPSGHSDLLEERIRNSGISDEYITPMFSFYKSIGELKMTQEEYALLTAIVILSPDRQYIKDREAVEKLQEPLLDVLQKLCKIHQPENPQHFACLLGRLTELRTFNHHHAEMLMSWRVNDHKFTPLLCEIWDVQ

Bile acid receptor [10] = molecular target: T1, Bile acid receptor; test: Antagonist activity at recombinant GST-tagged FXR LBD (unknown origin) assessed as inhibition of GW4064-induced Fluorecein-SRC2-2 coactivator peptide recruitment by LanthaScreen TR-FRET co-regulator assay

Row | Structure (SMILES) | IC50 (Huh-7) [nM] | remaining at 0.5 h, 1 ug/ml [1] [%] | remaining at 0.5 h, 1 ug/ml [2] [%] | concentration at 6 h [3] [ng/mL] | AUC [4] [ng·h/mL] | AUC(0-t) at 6 h (in vivo [5]) [ng·h/mL] | Tmax at 6 h (in vivo [6]) [h] | Cmax at 6 h (in vivo [7]) [ng/mL] | bioavailability at 6 h (in vivo [8]) [%] | IC50 (Bile acid receptor [9]) [nM] | IC50 (Bile acid receptor [10]) [nM]
1 | Cc1ccc2nc([C@H](CC3CCN(C(=O)C(C)C)CC3)N3C(=O)CN(c4ccc(Oc5ccc(F)cc5)cc4)C3=O)n(C)c2c1 | > 100000 | 10.6 | – | – | – | – | – | – | – | – | –
2 | CC(C)C(=O)N1CCC(C[C@@H](c2nc3ccc(F)cc3n2C2CC2)N2C(=O)CN(c3ccc(Oc4ccc(F)cc4)cc3)C2=O)CC1 | > 100000 | 54 | 84.4 | 2480 | 937 | 15600 | 3 | 2850 | 55.4 | – | –
3 | COc1ccc(Oc2ccc(N3CC(=O)N([C@@H](CC4CCN(C(=O)C(C)C)CC4)c4nc5ccc(C)cc5n4C)C3=O)cc2)cc1 | > 100000 | 2.4 | 12.1 | – | – | – | 2 | 483 | 18 | < 0.001 | –
4 | CC(C)C(=O)N1CCC(C[C@@H](c2nc3ccccc3n2C2CC2)N2C(=O)CN(c3ccc(Oc4ccc(F)cc4)cc3)C2=O)CC1 | > 100000 | 29.4 | – | – | – | – | – | – | – | 1.8 | 140
